Data from US20250090473A1, “Macrophage Targeted Immunotherapeutics” (The General Hospital Corporation, priority 2017, published 2025).
Where two headings read alike, the source gives them in different places.

Key:
[1] = tested on: murine M2-like macrophages; test: High-content morphological screening of macrophage re-education (M1 enrichment); format: cell-based; conditions: for M1 enrichment in response to drug treatment: variable concentrations, FIG. 5A
Method: Cells were maintained in the indicated medium at 37° C. and 5% CO2 and screened regularly for mycoplasma. RAW 264.7 cells were sourced from ATCC and maintained in Dulbecco's Modified Eagles Medium supplemented with 10% heat inactivated fetal calf serum (Atlanta Biologicals), 100 IU penicillin (Invitrogen), and 100 μg mL^−1 streptomycin (Invitrogen), and […] L-glutamine. The MC38 mouse colon adenocarcinoma cell lines were provided by Mark Smyth (QIMR Berghofer Medical Research Institute) with stable transfection of the H2B-Apple reporter to yield a MC38-H2B-mApple cell line employed in intravital microscopy studies. Murine bone marrow-derived macrophages (BMDMs) were isolated and derived by adaptation of published procedures known to those of skill in the art. Briefly, bone marrow was extracted from the surgically resected femur and tibia of naive C57BL/6 mice, dissociated and passed through a 40 μm strainer, and red blood cells lysed by ammonium chloride (StemCell Tech). Resultant bone marrow cells were plated in either 24-well (Corning 3527, for PCR analysis) or optical-bottom 384-well plates (Thermo Fisher 142761, for image analysis) at 1×10^6 cells mL^−1 in Iscove's Modified Dulbecco's Medium supplemented with 10% heat inactivated fetal calf serum, 100 IU penicillin, 100 μg ml^−1 streptomycin (Invitrogen) and 10 ng mL^−1 recombinant murine M-CSF (PeproTech, 315-02); media was replenished every two days. Human macrophages were derived from peripheral blood mononuclear cells isolated using Ficoll-Paque PLUS (GE Healthcare) gradient separation and derived in the presence of 50 ng mL^−1 recombinant human M-CSF (PeproTech, 300-25). Cell proliferation was assessed by PrestoBlue (Fisher) following manufacturer's protocols.
For morphological analysis, media was replenished with M-CSF-free media on day 7 followed by drug dosing (Table 1).
After 48 hours, cells were fixed with formaldehyde (30 min, 37° C.) and stained for actin (5.0 μg mL^−1 DyLight 554 Phalloidin, Cell Signaling Technology), cell membrane (5.0 μg mL^−1 Alexa Fluor 647 wheat germ agglutinin, Thermo Fisher) and nuclei (DAPI, Invitrogen) for 25 min at room temperature. Plates were washed by PBS prior to imaging on a custom Olympus-based automated high-content screening microscope. Four images were acquired per well in a 2×2 grid, imported into CellProfiler (Broad Institute) for pre-processing and segmentation (Table 2).
Computational cell classification was performed in CellProfiler Analyst (Broad Institute) by random forest assignment. Training data (examples provided, Supplementary Figure S1) consisted of approximately 50 healthy cells each representing undifferentiated (M0), M1-like, or M2-like phenotypes. The fast gentle algorithm was trained on the selected cells for […] determination of weights and thresholds for cell shape features. The resulting set of parameters was used to score all other images. The enrichment score for M1 cells was output back into the database and imported into KNIME to generate per-well and per-treatment averages.
Cell morphology was used as an integrated biomarker of cell function, including as an indicator for age and immunosuppressive capacity. The method that was used uses high-content image analysis via computational automated segmentation to extract features of single cells such as cellular radius, axis lengths, compactness, and eccentricity which are associated with the polarization state. […]

[2] = tested on: M2-like (IL-4 treated) murine macrophages; test: qPCR transcriptional analysis of M2-like (IL-4 treated) murine macrophages; format: cell-based; conditions: Mus musculus, Macrophage, M2-like macrophages cultured with R848, 24 hours, given as logIC50
Method: For transcriptional analysis, derived murine macrophages were treated with 10 ng mL^−1 recombinant mouse IL-4 (PeproTech 214-14) for 24 hours to induce an M2-like polarization state and subsequently dosed with fresh media supplemented by pharmacologic drugs at the prescribed concentrations. Macrophages treated only with IL-4 (10 ng mL^-1) or LPS (100 ng mL^-1) and IFNg (50 ng mL^-1) served as internal controls for M2-like and M1-like transcription profiles, respectively. […] Data are presented as the gene expression (fold change relative to hprt or β-actin, as indicated) or M1-likeness, calculated as described in Example 2, FIG. 20B. […]
A subset of drugs having a range of M1 enrichment activities were further scrutinized by qPCR analysis of representative M1-like (nos2, il12, and cd80) and M2-like (mrc1, arg1) transcripts. FIG. 20A is a set of two bar graphs depicting gene expression of M1-like and M2-like macrophages, expressed as fold change relative to hprt. […] M1-likeness is determined by summing the changes in expression for each gene resulting from treatment, normalized to the range of expression observed in the training data. […]

Row | IC50 ([2]; read-out: logIC50 of IL12 transcription (converted)) | IC50 ([2]; read-out: logIC50 of TLR7 expression (converted)) | EC50 ([1]; Mus musculus, Macrophage, dose response, 48 hours) | IC50 ([1]; Mus musculus, Macrophage, given as logIC50) | SMILES | M1 enrichment in response to drug treatment [1]
1 | – | – | – | – | CCCN(CCC)C(=O)C1=Cc2ccc(-c3ccc(C(=O)N4CCCC4)cc3)cc2N=C(N)C1 [motolimod] | M1 enrichments which were as pronounced as standard M1 induction by LPS and IFNγ
2 | – | – | – | – | CCCCOc1nc(N)c2c(n1)N(Cc1cccc(CN3CCCC3)c1)CC(=O)N2 [GS9620] | M1 enrichments which were as pronounced as standard M1 induction by LPS and IFNγ
3 | 398 nM | 7.24 nM | 14.1 nM | 14.5 nM | CCOCc1nc2c(N)nc3ccccc3c2n1CC(C)(C)O [R848, resiquimod] | –
4 | – | – | – | – | COc1ccc(COc2ccc(Cc3cnc(N)nc3N)cc2OC)cc1 [GW2580] | exception
